{
  "source": "ChEMBL document CHEMBL4613212",
  "about": "“Insights of synthetic analogues of anti-leprosy agents” (Bioorg Med Chem, 2019)",
  "key": {"Escherichia coli [1]": {"system": "Escherichia coli", "assay": "Antimicrobial activity against Escherichia coli ATCC 25922 by broth microdilution assay", "assay_type": "functional"}, "Staphylococcus aureus": {"system": "Staphylococcus aureus", "assay": "Antimicrobial activity against Staphylococcus aureus ATCC 25923 by broth microdilution assay", "assay_type": "functional"}, "[2]": {"system": "Mycobacterium tuberculosis", "assay": "Antitubercular activity against Mycobacterium tuberculosis H37Rv ATCC 27294 incubated for 7 days by microplate alamar blue assay", "assay_type": "functional", "details": "H37Rv ATCC 27294, 168 h"}, "Escherichia coli [3]": {"system": "Escherichia coli", "assay": "Antimicrobial activity against Escherichia coli ATCC 35218 by broth microdilution assay", "assay_type": "functional"}, "Enterococcus faecalis [4]": {"system": "Enterococcus faecalis", "assay": "Antimicrobial activity against Enterococcus faecalis ATCC 29212 by broth microdilution assay", "assay_type": "functional"}, "Listeria monocytogenes": {"system": "Listeria monocytogenes", "assay": "Antimicrobial activity against Listeria monocytogenes ATCC 1911 by broth microdilution assay", "assay_type": "functional"}, "Pseudomonas aeruginosa": {"system": "Pseudomonas aeruginosa", "assay": "Antimicrobial activity against Pseudomonas aeruginosa ATCC 27853 by broth microdilution assay", "assay_type": "functional"}, "Klebsiella pneumoniae": {"system": "Klebsiella pneumoniae", "assay": "Antimicrobial activity against Klebsiella pneumoniae 700603 by broth microdilution assay", "assay_type": "functional"}, "Nakaseomyces glabratus": {"system": "Nakaseomyces glabratus", "assay": "Antifungal activity against Candida glabrata", "assay_type": "functional"}, "Enterococcus faecalis [5]": {"system": "Enterococcus faecalis", "assay": "Antimicrobial activity against Enterococcus faecalis ATCC 51922 by broth microdilution assay", "assay_type": "functional"}, "Mycobacterium leprae [6]": {"system": "Mycobacterium leprae", "assay": "Anti-leprotic activity against Mycobacterium leprae infected in BALB/c mouse assessed as time delay in bacterial multiplication in footpad at 0.0045 g/100g of diet administered via feed starting 60 or 75 day post infection up to 90 days by Shepard's kinetic method", "assay_type": "functional"}, "Mycobacterium leprae [7]": {"system": "Mycobacterium leprae", "assay": "Anti-leprotic activity against Mycobacterium leprae infected in BALB/c mouse assessed as time delay in bacterial multiplication in footpad at 0.011 g/100g of diet administered via feed starting 60 or 75 day post infection up to 90 days by Shepard's kinetic method", "assay_type": "functional"}, "Monocyte [8]": {"system": "Monocyte", "assay": "Antiinflammatory activity in human monocytes assessed as inhibition of LPS-induced TNFaplha production preincubated for 15 mins followed by LPS addition and measured after 4 hrs by ELISA", "assay_type": "functional, cell-based"}, "[9]": {"assay": "Cytotoxicity against LPS-induced human monocytes assessed as cell viability at 50 uM by tryphan blue staining based assay relative to control", "set-up": "species or system Monocyte", "details": "read-out: Activity"}, "Monocyte [10]": {"system": "Monocyte", "assay": "Antiinflammatory activity in human monocytes assessed as inhibition of LPS-induced TNFaplha production at 50 uM preincubated for 15 mins followed by LPS addition and measured after 4 hrs by ELISA relative to control", "assay_type": "functional"}, "[11]": {"system": "Mycobacterium tuberculosis", "assay": "Antitubercular activity against Mycobacterium tuberculosis H37Rv ATCC 27294 assessed as growth inhibition at 6.25 ug/ml by microplate alamar blue assay relative to control", "assay_type": "functional"}, "[12]": {"assay": "Selectivity index, ratio of IC50 for African green monkey Vero cells to MIC for antitubercular activity against Mycobacterium tuberculosis H37Rv", "assay_type": "toxicity", "details": "Vero cells, read-out: Selectivity Index"}, "[13]": {"system": "Mycobacterium tuberculosis", "assay": "Antitubercular activity against Mycobacterium tuberculosis H37Rv ATCC 27294 assessed as inhibition of [3H]-thymidine incorporation at 1 ug/ml relative to control", "assay_type": "functional"}, "Mycobacterium leprae [14]": {"system": "Mycobacterium leprae", "assay": "Anti-leprotic activity against Mycobacterium leprae infected in BALB/c mouse assessed as time delay in bacterial multiplication in footpad at 0.008 g/100g of diet administered via feed starting 60 or 75 day post infection up to 90 days by Shepard's kinetic method", "assay_type": "functional"}, "Mycobacterium leprae [15]": {"system": "Mycobacterium leprae", "assay": "Anti-leprotic activity against Mycobacterium leprae infected in BALB/c mouse assessed as time delay in bacterial multiplication in footpad at 0.0087 g/100g of diet administered via feed starting 60 or 75 day post infection up to 90 days by Shepard's kinetic method", "assay_type": "functional"}, "Mycobacterium leprae [16]": {"system": "Mycobacterium leprae", "assay": "Anti-leprotic activity against Mycobacterium leprae infected in BALB/c mouse assessed as time delay in bacterial multiplication in footpad at 0.012 g/100g of diet administered via feed starting 60 or 75 day post infection up to 90 days by Shepard's kinetic method", "assay_type": "functional"}},
  "note": "pIC50: −log10 of the molar value.",
  "data": [
    {"smiles": "O=[N+]([O-])c1ccc(/C=N/NC(=S)Nc2ccc(C(F)(F)F)cc2)cc1", "values": [
      {"measurement": "MIC", "setting": "Escherichia coli [1]", "result": 400, "unit": "µg/mL"},
      {"measurement": "MIC", "setting": "Staphylococcus aureus", "result": 400, "unit": "µg/mL"},
      {"measurement": "MIC", "setting": "[2]", "result": 400, "unit": "µg/mL"},
      {"measurement": "MIC", "setting": "Escherichia coli [3]", "result": 400, "unit": "µg/mL"},
      {"measurement": "MIC", "setting": "Enterococcus faecalis [4]", "result": 100, "unit": "µg/mL"},
      {"measurement": "MIC", "setting": "Listeria monocytogenes", "result": 400, "unit": "µg/mL"},
      {"measurement": "MIC", "setting": "Pseudomonas aeruginosa", "result": 400, "unit": "µg/mL"},
      {"measurement": "MIC", "setting": "Klebsiella pneumoniae", "result": 400, "unit": "µg/mL"},
      {"measurement": "MIC", "setting": "Nakaseomyces glabratus", "result": 200, "unit": "µg/mL"},
      {"measurement": "MIC", "setting": "Enterococcus faecalis [5]", "result": 400, "unit": "µg/mL"}
    ]},
    {"smiles": "Nc1ccc([S+]([O-])c2ccc(N)cc2)cc1", "values": [
      {"measurement": "Time", "setting": "Mycobacterium leprae [6]", "result": 90, "unit": "days"}
    ]},
    {"smiles": "CC(=O)Nc1ccc(S(=O)(=O)c2ccc(NC(C)=O)cc2O)cc1", "values": [
      {"measurement": "Time", "setting": "Mycobacterium leprae [7]", "result": 126, "unit": "days"}
    ]},
    {"smiles": "CCC1(N2C(=O)c3cccc([N+](=O)[O-])c3C2=O)C(=O)NC(=O)N(c2ccccc2)C1=O", "note": "(configuration not stated)", "values": [
      {"measurement": "pIC50", "setting": "Monocyte [8]", "result": 2.52},
      {"measurement": "viability at 50 µM", "setting": "[9]", "result": 77, "unit": "%"},
      {"measurement": "inhibition at 50 µM", "setting": "Monocyte [10]", "result": "< 10", "unit": "%"}
    ]},
    {"smiles": "c1ccc(Cn2cnc3c(-c4cccs4)ncnc32)cc1", "values": [
      {"measurement": "inhibition at 6.25 µg/mL", "setting": "[11]", "result": "> 90", "unit": "%"},
      {"measurement": "selectivity ratio", "setting": "[12]", "result": "> 1.6"},
      {"measurement": "inhibition at 1 µg/mL", "setting": "[13]", "result": "< 10", "unit": "%"}
    ]},
    {"smiles": "Nc1ccc(Cc2ccc(N)cc2)cc1", "values": [
      {"measurement": "Time", "setting": "Mycobacterium leprae [14]", "result": "<10", "unit": "days"}
    ]},
    {"smiles": "Fc1ccc(/C=N/NC(=S)Nc2ccc(C(F)(F)F)cc2)cc1", "values": [
      {"measurement": "MIC", "setting": "Escherichia coli [1]", "result": 400, "unit": "µg/mL"},
      {"measurement": "MIC", "setting": "Staphylococcus aureus", "result": 100, "unit": "µg/mL"},
      {"measurement": "MIC", "setting": "[2]", "result": 400, "unit": "µg/mL"},
      {"measurement": "MIC", "setting": "Escherichia coli [3]", "result": 1600, "unit": "µg/mL"},
      {"measurement": "MIC", "setting": "Enterococcus faecalis [4]", "result": 200, "unit": "µg/mL"},
      {"measurement": "MIC", "setting": "Listeria monocytogenes", "result": 1600, "unit": "µg/mL"},
      {"measurement": "MIC", "setting": "Pseudomonas aeruginosa", "result": 1600, "unit": "µg/mL"},
      {"measurement": "MIC", "setting": "Klebsiella pneumoniae", "result": 800, "unit": "µg/mL"},
      {"measurement": "MIC", "setting": "Nakaseomyces glabratus", "result": 200, "unit": "µg/mL"},
      {"measurement": "MIC", "setting": "Enterococcus faecalis [5]", "result": 1600, "unit": "µg/mL"}
    ]},
    {"smiles": "c1ccc(Cn2cnc3c(-c4ccccc4)ncnc32)cc1", "values": [
      {"measurement": "inhibition at 1 µg/mL", "setting": "[13]", "result": "< 10", "unit": "%"}
    ]},
    {"smiles": "Nc1ccc(Sc2ccc(N)cc2)cc1", "note": "[4,4'-THIODIANILINE]", "values": [
      {"measurement": "Time", "setting": "Mycobacterium leprae [15]", "result": 68, "unit": "days"}
    ]},
    {"smiles": "CC(=O)Nc1ccc(S(=O)(=O)c2ccc(NC(C)=O)cc2Cl)cc1", "values": [
      {"measurement": "Time", "setting": "Mycobacterium leprae [16]", "result": 85, "unit": "days"}
    ]}
  ]
}
